Source: patent US5538971A, “Benzoquinoxalines, pharmaceutical compositions containing them and their use in treating schizophrenia” (Sandoz Ltd., priority 1991, dated 1996)
Like-named read-outs stand apart in the source and are kept apart here.

Columns and labels:
rat [1] = experiment: inhibition of locomotor activity increase induced by a D-1 agonist; format: in vivo; details: for inhibition of locomotor activity increase (in words): rat, D-1 agonist 10 mg/kg p.o., for the invention's compounds doses of ca. 0.1 to 10 mg/kg p.o. or ca. 0.1 to 0.5 mg/kg s.c.
Experimental: In this test, the substance to be tested is applied one hour before the D-1 agonist, and the locomotor activity is measured under red light using photoelectric cells.

mouse = experiment: apomorphine induced rearing test; format: in vivo
Experimental: Thus when administered to the mouse at doses of ca. 0.05 to ca. 1 mg/kg p.o., there is observed a significant inhibition of the rearing induced by subcutaneous administration of 0.5 mg/kg of apomorphine. In this test, each mouse is contained in a glass cylinder (20 cm high, 8 cm diameter) on absorbent cardboard and rearing is quantified by accumulating the time spent with both forepaws off the ground during three 1-minute periods at 10 minute intervals after apomorphine administration. […] This test detects both classical and atypical anti-psychotics and thus has predictive value for efficacy in schizophrenia.

[2] = molecular target: T1, dopamine receptors of the D-1 type (Bos taurus, UniProt Q95136); experiment: inhibition of the dopamine-induced stimulation of adenylate cyclase in homogenates of bovine retina; format: biochemical; details: calculated from IC50 according to Cheng and Prusoff, read-out: pKi, adenylate cyclase functional test (converted)
T1 construct: homogenates of bovine retina; from tissue; host or cells: bovine retina homogenate
T1 sequence (Q95136 whole entry): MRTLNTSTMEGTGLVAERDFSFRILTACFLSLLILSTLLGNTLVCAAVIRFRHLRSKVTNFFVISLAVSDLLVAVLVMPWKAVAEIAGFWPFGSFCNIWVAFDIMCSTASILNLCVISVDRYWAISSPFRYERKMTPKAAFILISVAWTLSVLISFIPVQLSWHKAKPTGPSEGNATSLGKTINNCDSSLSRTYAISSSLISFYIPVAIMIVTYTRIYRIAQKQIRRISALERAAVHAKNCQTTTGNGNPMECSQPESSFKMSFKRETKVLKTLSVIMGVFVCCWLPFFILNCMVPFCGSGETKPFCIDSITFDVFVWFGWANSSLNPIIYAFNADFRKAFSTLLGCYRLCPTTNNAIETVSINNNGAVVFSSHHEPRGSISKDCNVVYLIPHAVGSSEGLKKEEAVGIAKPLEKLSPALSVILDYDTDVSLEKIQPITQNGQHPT
Excerpt: At concentrations of ca. 1 nmol/l to ca. […] the compounds according to the invention effect strong inhibition of the dopamine-induced stimulation of adenylate cyclase in homogenates of bovine retina [for the method see R. Markstein, Journal Neural. Transmission 51, 39-59 (1981)].
This activity also indicates the use of the compounds according to the invention in schizophrenia.

rat [3] = experiment: cataleptogenic activity (catalepsy); format: in vivo; details: rat, 1, 3.2 and 10 mg/kg p.o., observation period of 8 hours
Experimental: Furthermore at doses of ca. 1 to ca. 10 mg/kg p.o., the compounds according to the invention effect no catalepsy of the rat. Cataleptogenic activity is assessed as described by G. Stille et al. in Arzneimittel Forschung 15, 841-843 (1965). The criterion for catalepsy is fulfilled when posture retention time is longer than 10 seconds. In view of the lack of cataleptogenic activity, the risk that the compounds according to the invention might cause extra-pyramidal side effects is improbable.

[4] = Mus musculus, po, 0.5 h, read-out: ED50, apomorphine-induced rearing
[5] = Mus musculus, sc, 0.5 h, read-out: ED50, apomorphine-induced rearing

CN1CC[C@@H](c2ccccc2)[C@@H]2c3cccc4[nH]c(Cl)c(c34)C[C@H]21 (stereo in doubt) [phenylergoline, (+)-(5R)[5β, 9α, 10α]-2-chloro-6-methyl-9-phenylergoline, reference compound]
inhibition at 2 mg/kg (rat [1]; Rattus norvegicus, Rat2, po, read-out: inhibition of locomotor activity increase): 45%

CN1CCN(C2=Nc3cc(Cl)ccc3Nc3ccccc32)CC1 [Clozapine, reference compound]
ED50 (mouse; po, 0.5 h, mouse, p.o., after 30 minutes, apomorphine 0.5 mg/kg s.c., read-out: ED50, apomorphine-induced rearing): 4.3 mg/kg
ED50 (mouse; sc, 0.5 h, mouse, s.c., after 30 minutes, apomorphine 0.5 mg/kg s.c., read-out: ED50, apomorphine-induced rearing): 0.66 mg/kg
inhibition of locomotor activity increase (in words) (rat [1]): active

Cc1cc(Cl)ccc1N1CCN(C)[C@@H]2Cc3cccc(O)c3C[C@H]21 [Example 2, (-)-[4aR,10aR]-l,2,3,4,4a,5,10,10a-octahydro-4-(4'-chloro-2'-methyl-phenyl)-1-methyl-benzo[g]quinoxaline-6-ol]
ED50 (mouse; [4]): 0.38 mg/kg
ED50 (mouse; Mus musculus, po, 1 h, read-out: E50, apomorphine-induced rearing after subchronic treatment): 0.28 mg/kg
ED50 (mouse; Mus musculus, po, 1 h, read-out: ED50, apomorphine-induced rearing): 0.14 mg/kg
ED50 (mouse; [5]): 0.033 mg/kg
ED50 (mouse; Mus musculus, sc, 1 h, read-out: ED50, apomorphine-induced rearing): 0.04 mg/kg
Ki [2]: 50.1 nM
inhibition at 1 mg/kg (rat [1]; Rattus norvegicus, po, read-out: inhibition of locomotor activity increase): 76%
inhibition of locomotor activity increase (in words) (rat [1]): inhibits the locomotor activity increase more potently
catalepsy (rat [3]): fails to produce catalepsy

O=C(CCCN1CCC(O)(c2ccc(Cl)cc2)CC1)c1ccc(F)cc1 [Haloperidol, reference compound]
ED50 (mouse; [4]): 0.03 mg/kg
ED50 (mouse; [5]): 0.008 mg/kg
